These results are taken from patent US20220160747A1, “PHARMACEUTICAL COMPOSITION COMPRISING NOVEL AZOLOPYRIMIDINE HETEROCYCLIC COMPOUND AS ACTIVE INGREDIENT” (KOREA RESEARCH INSTITUTE OF CHEMICAL TECHNOLOGY, priority 2019, published 2022).

The target of assay [1] is T1, human CD39 recombinant protein (Homo sapiens, UniProt P49961).
T1 construct: made in house
T1 sequence (P49961 1-510): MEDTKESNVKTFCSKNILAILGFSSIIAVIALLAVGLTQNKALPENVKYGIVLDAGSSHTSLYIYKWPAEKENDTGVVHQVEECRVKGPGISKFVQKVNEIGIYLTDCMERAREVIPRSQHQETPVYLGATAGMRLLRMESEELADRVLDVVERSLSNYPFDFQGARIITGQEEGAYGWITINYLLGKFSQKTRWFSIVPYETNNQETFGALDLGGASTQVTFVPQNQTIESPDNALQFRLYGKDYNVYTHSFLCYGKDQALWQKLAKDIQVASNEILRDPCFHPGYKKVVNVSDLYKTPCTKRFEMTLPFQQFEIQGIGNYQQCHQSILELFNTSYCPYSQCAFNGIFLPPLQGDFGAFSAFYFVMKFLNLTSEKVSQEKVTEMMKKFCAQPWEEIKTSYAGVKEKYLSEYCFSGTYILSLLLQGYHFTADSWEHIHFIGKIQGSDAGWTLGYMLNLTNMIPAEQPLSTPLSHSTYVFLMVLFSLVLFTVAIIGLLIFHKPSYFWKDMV
Put plainly: Enzyme assay, CD39 (Malachite green kit). It is filed as biochemical. The conditions noted are these: AMP added, incubation 30 minutes. As for the experimental part: (§1) Referring to a method described in a reference document [Front Pharmacol. 2018 Mar. 1; 9:153], an enzyme assay was performed. Each of human CD73 and CD39 recombinant proteins was produced and then purified and isolated, and used in an enzyme assay. A buffer was basically 25 mM Tris, 5 mM MgCl2, pH 7.5 as an assay buffer, and for assay, human CD73 and CD39 recombinant protein were diluted at an appropriate concentration, respectively, in the assay buffer, adenosine monophosphate (AMP) (Sigma, Catalog #A1752) at an appropriate concentration was added, and then incubation was performed for 30 minutes. At the time, the azolopyrimidine heterocyclic compounds of the present invention were treated for each concentration and incubated together, thereby measuring a degree of inhibiting activity of CD73 or CD39.

Assay [2] addresses T2, human CD73 recombinant protein (Homo sapiens, UniProt P21589).
T2 construct: made in house
T2 sequence (P21589 27-549): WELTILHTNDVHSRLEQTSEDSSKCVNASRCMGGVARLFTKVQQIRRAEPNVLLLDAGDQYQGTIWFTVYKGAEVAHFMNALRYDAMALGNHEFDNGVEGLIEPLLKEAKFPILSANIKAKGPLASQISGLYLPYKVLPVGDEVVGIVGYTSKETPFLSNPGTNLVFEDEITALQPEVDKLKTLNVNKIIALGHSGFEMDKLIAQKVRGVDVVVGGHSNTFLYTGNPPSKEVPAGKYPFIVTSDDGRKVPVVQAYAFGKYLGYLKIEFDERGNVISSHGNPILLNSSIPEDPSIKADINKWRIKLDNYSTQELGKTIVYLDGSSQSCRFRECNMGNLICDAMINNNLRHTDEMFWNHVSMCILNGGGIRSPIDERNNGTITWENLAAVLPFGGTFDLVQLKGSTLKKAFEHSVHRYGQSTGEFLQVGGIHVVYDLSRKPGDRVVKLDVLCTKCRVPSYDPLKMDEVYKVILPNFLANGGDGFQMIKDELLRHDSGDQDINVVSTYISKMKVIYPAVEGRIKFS
Put plainly: Enzyme assay, CD73 (Malachite green kit). The assay is classed as biochemical. The following applies: AMP added, incubation 30 minutes. On the procedure:
as §1

The IC50 is the midpoint of a concentration-inhibition curve. `CN(Cc1cccc(F)c1)c1ncnc2c1ncn2[C@@H]1O[C@H](COC(c2ccccc2)(c2ccccc2)c2ccccc2)[C@@H](O)[C@H]1O` [Compound 24, (2R,3R,4S,5R)-2-(6-((3-fluorobenzyl)(methyl)amino)-9H-purin-9-yl)-5-((trityloxy)methyl)tetrahydrofuran-3,4-diol]: the half-maximal inhibitory concentration (IC50) in assay [1] was 1.1 to 5 µM; in assay [2] it was less than 1 µM.
As to `COc1ccc(C(OC[C@H]2O[C@@H](n3cnc4c(N(C)Cc5cccc(F)c5)ncnc43)[C@H](O)[C@@H]2O)(c2ccccc2)c2ccc(OC)cc2)cc1` [Compound 25, (2R,3S,4R,5R)-2-((bis(4-methoxyphenyl) (phenyl)methoxy)methyl)-5-(6-((3-fluorobenzyl)(methyl)amino)-9H-purin-9-yl)tetrahydrofuran-3,4-diol], the half-inhibitory concentration (IC50) in assay [1] and in assay [2] was less than 1 µM in each case.
